Tested on: Pseudomonas aeruginosa
Test: Antibacterial activity against multidrug-resistant Pseudomonas aeruginosa assessed as reduction in microbial growth incubated for 24 hrs by microdilution assay
Assay type: functional
Settings: not given

Point of comparison: CCCCCCCCOP(=O)(CCN(CCCN)CCCN)OCCCOP(=O)(CCN(CCCN)CCCN)OCCCCCCCC.Cl.Cl.Cl.Cl.Cl.Cl (stereo unspecified), MIC 8 µg/mL. Against it:
- CC(C)COP(=O)(CCN(CCCN)CCCN)OCCCCCCCCCCOP(=O)(CCN(CCCN)CCCN)OCC(C)C.Cl.Cl.Cl.Cl.Cl.Cl (stereo unspecified) — 8-fold higher, 64 µg/mL
- CCCCCCCCCCOP(=O)(CCN(CCCN)CCCN)OCCCCCCOP(=O)(CCN(CCCN)CCCN)OCCCCCCCCCC.Cl.Cl.Cl.Cl.Cl.Cl (stereo unspecified) — 4-fold lower, 2 µg/mL
- CCCCCOP(=O)(CCN(CCCN)CCCN)OCCCCCCCCCCCCOP(=O)(CCN(CCCN)CCCN)OCCCCC.Cl.Cl.Cl.Cl.Cl.Cl (stereo unspecified) — 2-fold lower, 4 µg/mL

Tested on: Enterococcus faecalis
Test: Antibacterial activity against Enterococcus faecalis ATCC 29212 = CCM 4224 assessed as inhibition of bacterial growth incubated for 24 hrs by microdilution assay
Assay type: functional
Settings: not given

Point of comparison: CC(C)COP(=O)(CCN(CCCN)CCCN)OCCCCCCCCCCOP(=O)(CCN(CCCN)CCCN)OCC(C)C.Cl.Cl.Cl.Cl.Cl.Cl (stereo unspecified), MIC 64 µg/mL. Against it:
- CCCCCCCCOP(=O)(CCN(CCCN)CCCN)OCCCOP(=O)(CCN(CCCN)CCCN)OCCCCCCCC.Cl.Cl.Cl.Cl.Cl.Cl (stereo unspecified) — 8-fold lower, 8 µg/mL
- CCCCCCCCCCOP(=O)(CCN(CCCN)CCCN)OCCCCCCOP(=O)(CCN(CCCN)CCCN)OCCCCCCCCCC.Cl.Cl.Cl.Cl.Cl.Cl (stereo unspecified) — 64-fold lower, 1 µg/mL
- CCCCCOP(=O)(CCN(CCCN)CCCN)OCCCCCCCCCCCCOP(=O)(CCN(CCCN)CCCN)OCCCCC.Cl.Cl.Cl.Cl.Cl.Cl (stereo unspecified) — 32-fold lower, 2 µg/mL

Tested on: not listed separately
Test: Gradient chromatographic hydrophobicity index of the compound at pH 3.7 by HPLC analysis
Assay type: ADME
Settings: not given

Point of comparison: CCCCCOP(=O)(CCN(CCCN)CCCN)OCCCCCCCCCCCCOP(=O)(CCN(CCCN)CCCN)OCCCCC.Cl.Cl.Cl.Cl.Cl.Cl (stereo unspecified), CHI 34.7. Against it:
- CC(C)COP(=O)(CCN(CCCN)CCCN)OCCCCCCCCCCOP(=O)(CCN(CCCN)CCCN)OCC(C)C.Cl.Cl.Cl.Cl.Cl.Cl (stereo unspecified) — higher, 35
- CCCCCCCCOP(=O)(CCN(CCCN)CCCN)OCCCOP(=O)(CCN(CCCN)CCCN)OCCCCCCCC.Cl.Cl.Cl.Cl.Cl.Cl (stereo unspecified) — higher, 35.5
- CCCCCCCCCCOP(=O)(CCN(CCCN)CCCN)OCCCCCCOP(=O)(CCN(CCCN)CCCN)OCCCCCCCCCC.Cl.Cl.Cl.Cl.Cl.Cl (stereo unspecified) — higher, 44

Tested on: Escherichia coli
Test: Antibacterial activity against Escherichia coli ATCC 25922 = CCM 3954 assessed as inhibition of bacterial growth incubated for 24 hrs by microdilution assay
Assay type: functional
Settings: not given

Point of comparison: CCCCCCCCOP(=O)(CCN(CCCN)CCCN)OCCCOP(=O)(CCN(CCCN)CCCN)OCCCCCCCC.Cl.Cl.Cl.Cl.Cl.Cl (stereo unspecified), MIC 2 µg/mL. Against it:
- CC(C)COP(=O)(CCN(CCCN)CCCN)OCCCCCCCCCCOP(=O)(CCN(CCCN)CCCN)OCC(C)C.Cl.Cl.Cl.Cl.Cl.Cl (stereo unspecified) — higher, > 128 µg/mL
- CCCCCCCCCCOP(=O)(CCN(CCCN)CCCN)OCCCCCCOP(=O)(CCN(CCCN)CCCN)OCCCCCCCCCC.Cl.Cl.Cl.Cl.Cl.Cl (stereo unspecified) — 2-fold lower, 1 µg/mL
- CCCCCOP(=O)(CCN(CCCN)CCCN)OCCCCCCCCCCCCOP(=O)(CCN(CCCN)CCCN)OCCCCC.Cl.Cl.Cl.Cl.Cl.Cl (stereo unspecified) — 8-fold higher, 16 µg/mL

Tested on: Staphylococcus aureus
Test: Antibacterial activity against Staphylococcus aureus ATCC 29213 = CCM 4223 assessed as inhibition of bacterial growth incubated for 24 hrs by microdilution assay
Assay type: functional
Settings: not given

Point of comparison: CCCCCCCCCCOP(=O)(CCN(CCCN)CCCN)OCCCCCCOP(=O)(CCN(CCCN)CCCN)OCCCCCCCCCC.Cl.Cl.Cl.Cl.Cl.Cl (stereo unspecified), MIC 1 µg/mL. Against it:
- CC(C)COP(=O)(CCN(CCCN)CCCN)OCCCCCCCCCCOP(=O)(CCN(CCCN)CCCN)OCC(C)C.Cl.Cl.Cl.Cl.Cl.Cl (stereo unspecified) — 32-fold higher, 32 µg/mL
- CCCCCCCCOP(=O)(CCN(CCCN)CCCN)OCCCOP(=O)(CCN(CCCN)CCCN)OCCCCCCCC.Cl.Cl.Cl.Cl.Cl.Cl (stereo unspecified) — 2-fold higher, 2 µg/mL

Tested on: Pseudomonas aeruginosa
Test: Antibacterial activity against Pseudomonas aeruginosa ATCC 27853 = CCM 3955 assessed as inhibition of bacterial growth incubated for 24 hrs by microdilution assay
Assay type: functional
Settings: not given

Point of comparison: CCCCCCCCOP(=O)(CCN(CCCN)CCCN)OCCCOP(=O)(CCN(CCCN)CCCN)OCCCCCCCC.Cl.Cl.Cl.Cl.Cl.Cl (stereo unspecified), MIC 16 µg/mL. Against it:
- CC(C)COP(=O)(CCN(CCCN)CCCN)OCCCCCCCCCCOP(=O)(CCN(CCCN)CCCN)OCC(C)C.Cl.Cl.Cl.Cl.Cl.Cl (stereo unspecified) — 8-fold higher, 128 µg/mL
- CCCCCCCCCCOP(=O)(CCN(CCCN)CCCN)OCCCCCCOP(=O)(CCN(CCCN)CCCN)OCCCCCCCCCC.Cl.Cl.Cl.Cl.Cl.Cl (stereo unspecified) — 16-fold lower, 1 µg/mL
- CCCCCOP(=O)(CCN(CCCN)CCCN)OCCCCCCCCCCCCOP(=O)(CCN(CCCN)CCCN)OCCCCC.Cl.Cl.Cl.Cl.Cl.Cl (stereo unspecified) — 4-fold lower, 4 µg/mL

Tested on: Escherichia coli
Test: Antibacterial activity against Escherichia coli ATCC 25922 = CCM 3954 assessed as inhibition of bacterial growth incubated for 24 hrs in presence of BSA by microdilution assay
Assay type: functional
Settings: not given

Point of comparison: CCCCCOP(=O)(CCN(CCCN)CCCN)OCCCCCCCCCCCCOP(=O)(CCN(CCCN)CCCN)OCCCCC.Cl.Cl.Cl.Cl.Cl.Cl (stereo unspecified), MIC 16 µg/mL. Against it:
- CC(C)COP(=O)(CCN(CCCN)CCCN)OCCCCCCCCCCOP(=O)(CCN(CCCN)CCCN)OCC(C)C.Cl.Cl.Cl.Cl.Cl.Cl (stereo unspecified) — higher, > 128 µg/mL
- CCCCCCCCOP(=O)(CCN(CCCN)CCCN)OCCCOP(=O)(CCN(CCCN)CCCN)OCCCCCCCC.Cl.Cl.Cl.Cl.Cl.Cl (stereo unspecified) — 4-fold lower, 4 µg/mL
- CCCCCCCCCCOP(=O)(CCN(CCCN)CCCN)OCCCCCCOP(=O)(CCN(CCCN)CCCN)OCCCCCCCCCC.Cl.Cl.Cl.Cl.Cl.Cl (stereo unspecified) — 16-fold lower, 1 µg/mL

Tested on: Staphylococcus epidermidis
Test: Antibacterial activity against Staphylococcus epidermidis CCM 7221 assessed as inhibition of bacterial growth incubated for 24 hrs by microdilution assay
Assay type: functional
Settings: not given

Point of comparison: CC(C)COP(=O)(CCN(CCCN)CCCN)OCCCCCCCCCCOP(=O)(CCN(CCCN)CCCN)OCC(C)C.Cl.Cl.Cl.Cl.Cl.Cl (stereo unspecified), MIC 8 µg/mL. Against it:
- CCCCCCCCOP(=O)(CCN(CCCN)CCCN)OCCCOP(=O)(CCN(CCCN)CCCN)OCCCCCCCC.Cl.Cl.Cl.Cl.Cl.Cl (stereo unspecified) — 4-fold lower, 2 µg/mL
- CCCCCCCCCCOP(=O)(CCN(CCCN)CCCN)OCCCCCCOP(=O)(CCN(CCCN)CCCN)OCCCCCCCCCC.Cl.Cl.Cl.Cl.Cl.Cl (stereo unspecified) — 16-fold lower, 0.5 µg/mL
- CCCCCOP(=O)(CCN(CCCN)CCCN)OCCCCCCCCCCCCOP(=O)(CCN(CCCN)CCCN)OCCCCC.Cl.Cl.Cl.Cl.Cl.Cl (stereo unspecified) — 16-fold lower, 0.5 µg/mL

Tested on: Staphylococcus aureus
Test: Antibacterial activity against methicillin resistant Staphylococcus aureus 4591/A assessed as reduction in microbial growth incubated for 24 hrs by microdilution assay
Assay type: functional
Settings: not given

Point of comparison: CC(C)COP(=O)(CCN(CCCN)CCCN)OCCCCCCCCCCOP(=O)(CCN(CCCN)CCCN)OCC(C)C.Cl.Cl.Cl.Cl.Cl.Cl (stereo unspecified), MIC 16 µg/mL. Against it:
- CCCCCCCCOP(=O)(CCN(CCCN)CCCN)OCCCOP(=O)(CCN(CCCN)CCCN)OCCCCCCCC.Cl.Cl.Cl.Cl.Cl.Cl (stereo unspecified) — 8-fold lower, 2 µg/mL
- CCCCCCCCCCOP(=O)(CCN(CCCN)CCCN)OCCCCCCOP(=O)(CCN(CCCN)CCCN)OCCCCCCCCCC.Cl.Cl.Cl.Cl.Cl.Cl (stereo unspecified) — 32-fold lower, 0.5 µg/mL
- CCCCCOP(=O)(CCN(CCCN)CCCN)OCCCCCCCCCCCCOP(=O)(CCN(CCCN)CCCN)OCCCCC.Cl.Cl.Cl.Cl.Cl.Cl (stereo unspecified) — 16-fold lower, 1 µg/mL

Tested on: Enterococcus faecium
Test: Antibacterial activity against vancomycin resistant Enterococcus faecium 419/ANA assessed as reduction in microbial growth incubated for 24 hrs by microdilution assay
Assay type: functional
Settings: not given

Point of comparison: CC(C)COP(=O)(CCN(CCCN)CCCN)OCCCCCCCCCCOP(=O)(CCN(CCCN)CCCN)OCC(C)C.Cl.Cl.Cl.Cl.Cl.Cl (stereo unspecified), MIC 128 µg/mL. Against it:
- CCCCCCCCOP(=O)(CCN(CCCN)CCCN)OCCCOP(=O)(CCN(CCCN)CCCN)OCCCCCCCC.Cl.Cl.Cl.Cl.Cl.Cl (stereo unspecified) — 2-fold lower, 64 µg/mL
- CCCCCCCCCCOP(=O)(CCN(CCCN)CCCN)OCCCCCCOP(=O)(CCN(CCCN)CCCN)OCCCCCCCCCC.Cl.Cl.Cl.Cl.Cl.Cl (stereo unspecified) — 130-fold lower, 1 µg/mL
- CCCCCOP(=O)(CCN(CCCN)CCCN)OCCCCCCCCCCCCOP(=O)(CCN(CCCN)CCCN)OCCCCC.Cl.Cl.Cl.Cl.Cl.Cl (stereo unspecified) — 8-fold lower, 16 µg/mL

Tested on: Staphylococcus aureus
Test: Antibacterial activity against Staphylococcus aureus ATCC 29213 = CCM 4223 assessed as inhibition of bacterial growth incubated for 24 hrs in presence of BSA by microdilution assay
Assay type: functional
Settings: not given

Point of comparison: CCCCCOP(=O)(CCN(CCCN)CCCN)OCCCCCCCCCCCCOP(=O)(CCN(CCCN)CCCN)OCCCCC.Cl.Cl.Cl.Cl.Cl.Cl (stereo unspecified), MIC 8 µg/mL. Against it:
- CC(C)COP(=O)(CCN(CCCN)CCCN)OCCCCCCCCCCOP(=O)(CCN(CCCN)CCCN)OCC(C)C.Cl.Cl.Cl.Cl.Cl.Cl (stereo unspecified) — 2-fold higher, 16 µg/mL
- CCCCCCCCOP(=O)(CCN(CCCN)CCCN)OCCCOP(=O)(CCN(CCCN)CCCN)OCCCCCCCC.Cl.Cl.Cl.Cl.Cl.Cl (stereo unspecified) — 4-fold lower, 2 µg/mL
- CCCCCCCCCCOP(=O)(CCN(CCCN)CCCN)OCCCCCCOP(=O)(CCN(CCCN)CCCN)OCCCCCCCCCC.Cl.Cl.Cl.Cl.Cl.Cl (stereo unspecified) — 40-fold lower, 0.2 µg/mL

Tested on: not listed separately
Test: Hemolytic activity in human RBC assessed as haemoglobin release measured after 3 hr
Assay type: toxicity, cell-based, Erythrocyte
Settings: red blood cells (erythrocytes)

Point of comparison: CCCCCCCCCCOP(=O)(CCN(CCCN)CCCN)OCCCCCCOP(=O)(CCN(CCCN)CCCN)OCCCCCCCCCC.Cl.Cl.Cl.Cl.Cl.Cl (stereo unspecified), HC50 at 3 h 16 µg/mL. Against it:
- CC(C)COP(=O)(CCN(CCCN)CCCN)OCCCCCCCCCCOP(=O)(CCN(CCCN)CCCN)OCC(C)C.Cl.Cl.Cl.Cl.Cl.Cl (stereo unspecified) — higher, > 500 µg/mL
- CCCCCCCCOP(=O)(CCN(CCCN)CCCN)OCCCOP(=O)(CCN(CCCN)CCCN)OCCCCCCCC.Cl.Cl.Cl.Cl.Cl.Cl (stereo unspecified) — higher, > 500 µg/mL
- CCCCCOP(=O)(CCN(CCCN)CCCN)OCCCCCCCCCCCCOP(=O)(CCN(CCCN)CCCN)OCCCCC.Cl.Cl.Cl.Cl.Cl.Cl (stereo unspecified) — 28-fold higher, 444 µg/mL

Tested on: Escherichia coli
Test: Antibacterial activity against multidrug-resistant Escherichia coli CE5556 expressing CTX-M-15 assessed as reduction in microbial growth incubated for 24 hrs by microdilution assay
Assay type: functional
Settings: not given

Point of comparison: CCCCCCCCCCOP(=O)(CCN(CCCN)CCCN)OCCCCCCOP(=O)(CCN(CCCN)CCCN)OCCCCCCCCCC.Cl.Cl.Cl.Cl.Cl.Cl (stereo unspecified), MIC 1 µg/mL. Against it:
- CC(C)COP(=O)(CCN(CCCN)CCCN)OCCCCCCCCCCOP(=O)(CCN(CCCN)CCCN)OCC(C)C.Cl.Cl.Cl.Cl.Cl.Cl (stereo unspecified) — 130-fold higher, 128 µg/mL
- CCCCCCCCOP(=O)(CCN(CCCN)CCCN)OCCCOP(=O)(CCN(CCCN)CCCN)OCCCCCCCC.Cl.Cl.Cl.Cl.Cl.Cl (stereo unspecified) — 4-fold higher, 4 µg/mL
- CCCCCOP(=O)(CCN(CCCN)CCCN)OCCCCCCCCCCCCOP(=O)(CCN(CCCN)CCCN)OCCCCC.Cl.Cl.Cl.Cl.Cl.Cl (stereo unspecified) — 32-fold higher, 32 µg/mL
